Test results: PubChem BioAssay AID1259408 (Genetic Toxicology Data Bank (GENE-TOX), 2018)
Active and inactive are the calls of the source. No rule for the calls is given here.

System: GENE-TOX genotoxicity assays, various organisms and cells
Assay: GENE-TOX mutagenicity studies
Conditions: for call: Assay Type: In vivo carcinogenicity studies
[1] = Species/Cell Type: Mammalian polychromatic erythrocytes, Assay Type: Micronucleus test, chromosome aberrations, Assay Code: MNTT, Evaluation Type: Evaluation B (Post-1980)
[2] = Species/Cell Type: Syrian hamster embryo (SHE) cells, Assay Type: Cell transformation, clonal assay, Assay Code: CTC-, Evaluation Type: Evaluation A (Pre-1980)
[3] = Species/Cell Type: Drosophila melanogaster, Assay Type: Sex-linked recessive lethal gene mutation, Assay Code: SRL+, Evaluation Type: Evaluation A (Pre-1980)
[4] = Species/Cell Type: Saccharomyces cerevisiae, Assay Type: Mitotic recombination or gene conversion, Assay Code: YEC+, Evaluation Type: Evaluation A (Pre-1980)
[5] = Species/Cell Type: Nonhuman, Assay Type: Sister-chromatid exchange (SCE) in vitro, Assay Code: SC2+D, Dose Response: With dose response, Evaluation Type: Evaluation B (Post-1980)
[6] = Species/Cell Type: Salmonella typhimurium (one or more of the five standard strains: TA98, TA100, TA1535, TA1537, and TA1538), Assay Type: Histidine reverse gene mutation, Ames assay, Assay Code: SAL+, Evaluation Type: Evaluation A (Pre-1980)
[7] = Species/Cell Type: Chinese hamster lung (V79) cells, Assay Type: Forward gene mutation at the HPRT or ouabain locus, Assay Code: V79+, Evaluation Type: Evaluation A (Pre-1980)
[8] = Species/Cell Type: Nonhuman, Assay Code: CCGT, Evaluation Type: Evaluation A (Pre-1980)
[9] = Species/Cell Type: Fischer rat embryo (RLV/1706) cells, Assay Type: Cell transformation, viral enhanced, Assay Code: CTR+, Evaluation Type: Evaluation A (Pre-1980)
[10] = Species/Cell Type: Nonhuman, Assay Code: CCG+L, Evaluation Type: Evaluation A (Pre-1980)
[11] = Species/Cell Type: Neurospora crassa, Assay Type: Reverse gene mutation, Assay Code: NER+, Evaluation Type: Evaluation A (Pre-1980)
[12] = Species/Cell Type: Schizosaccharomyces pombe, Assay Type: Reverse gene mutation, Assay Code: YEZ+, Evaluation Type: Evaluation A (Pre-1980)
[13] = Species/Cell Type: Neurospora crassa, Assay Type: Forward gene mutation, Assay Code: NEF+, Evaluation Type: Evaluation A (Pre-1980)
[14] = Species/Cell Type: Nonhuman, Assay Code: CCG+, Evaluation Type: Evaluation A (Pre-1980)

With `CO` the mutagenic call [1] was “no conclusion”, the mutagenic call (Species/Cell Type: Neurospora crassa, Assay Type: Aneuploidy, chromosome aberrations, Assay Code: NEN-, Evaluation Type: Evaluation A (Pre-1980)) was “inactive; negative” and the mutagenic call (Species/Cell Type: Nonhuman, Assay Type: Sister-chromatid exchange (SCE) in vitro, Assay Code: SC2-, Evaluation Type: Evaluation A (Pre-1980)) was “inactive; negative”. For the same compound, the mutagenic call (Species/Cell Type: Syrian hamster embryo (SA7/SHE) cells, Assay Type: Cell transformation, viral enhanced, Assay Code: CT7-, Evaluation Type: Evaluation A (Pre-1980)) was “inactive; negative” and the mutagenic call [2] was “inactive; negative”.
`COc1ccc(N=NN(C)C)cc1` was tested, and the mutagenic call [3] was “active; positive” and the mutagenic call [4] was “active; positive”.
With `O=C1OC(=O)c2c(Br)c(Br)c(Br)c(Br)c21` the mutagenic call (Species/Cell Type: Salmonella typhimurium (one or more of the five standard strains: TA98, TA100, TA1535, TA1537, and TA1538), Assay Type: Histidine reverse gene mutation, Ames assay, Assay Code: SAL-, Evaluation Type: Evaluation A (Pre-1980)) was “inactive; negative”.
`CC(=O)C1COC(O)C1C` (stereo not given) was tested, and the mutagenic call [5] was “active; positive”.
`O=NN(CCCl)C(=O)NCCO` was tested, and the mutagenic call [3] was “active; positive” and the mutagenic call [4] was “active; positive”.
`CCCCC[CH2][Hg][Br]` was tested, and the mutagenic call (Species/Cell Type: Allium cepa, Assay Type: Chromosome aberrations, Assay Code: ALC+D, Dose Response: With dose response, Evaluation Type: Evaluation A (Pre-1980)) was “active; positive”.
`c1ccc(-c2ccc(C3CO3)cc2)cc1` (stereo not given) was tested, and the mutagenic call [6] was “active; positive”.
For `CC(=O)Nc1ccc(O)cc1`, the mutagenic call (Species/Cell Type: Human lymphocytes, Assay Type: Sister-chromatid exchange (SCE) in vitro, Assay Code: SCL-, Evaluation Type: Evaluation B (Post-1980)) was “inactive; negative” and the mutagenic call (Species/Cell Type: Salmonella typhimurium (one or more of the five standard strains: TA98, TA100, TA1535, TA1537, and TA1538), Assay Type: Histidine reverse gene mutation, Ames assay, Assay Code: SALT, Evaluation Type: Evaluation A (Pre-1980)) was “no conclusion”.
`[N-]=[N+]=O` was tested, and the mutagenic call [7] was “active; positive”, the mutagenic call (Species/Cell Type: Mouse, Sex: Male, Assay Type: Sperm morphology, Assay Code: SPI-, Evaluation Type: Evaluation A (Pre-1980)) was “inactive; negative” and the call [8] was “no conclusion”. The mutagenic call (Species/Cell Type: Nonhuman, Assay Type: Sister-chromatid exchange (SCE) in vitro, Assay Code: SC2T, Evaluation Type: Evaluation B (Post-1980)) was “no conclusion” and the mutagenic call (Species/Cell Type: Tradescantia species, Assay Type: Gene mutation, Assay Code: TRM+D, Dose Response: With dose response, Evaluation Type: Evaluation A (Pre-1980)) was “active; positive”.
With `Cc1cc(N(C)C)ccc1N=Nc1ccccc1` the mutagenic call (Species/Cell Type: Escherichia coli polA (W3110 vs P3478), Assay Type: Rec-assay, DNA effects (bacterial DNA repair), Assay Code: RE2-, Evaluation Type: Evaluation A (Pre-1980)) was “inactive; negative”, the mutagenic call (Species/Cell Type: Escherichia coli polA (W3119 vs P3478), Assay Type: Rec-assay, DNA effects (bacterial DNA repair), Assay Code: RE1T, Evaluation Type: Evaluation A (Pre-1980)) was “no conclusion” and the mutagenic call [9] was “active; positive”. The mutagenic call (Species/Cell Type: Human diploid fibroblasts, Assay Type: Unscheduled DNA synthesis (UDS) in vitro, DNA effects, Assay Code: UDH-, Evaluation Type: Evaluation A (Pre-1980)) was “inactive; negative”, the mutagenic call (Species/Cell Type: Mouse (BALB/c-3T3) cells, Assay Type: Cell transformation, Assay Code: CTB-, Evaluation Type: Evaluation A (Pre-1980)) was “inactive; negative” and the call [10] was “active; positive”. The mutagenic call (Species/Cell Type: Nonhuman, Assay Type: Sister-chromatid exchange (SCE) in vitro, Assay Code: SC2+D, Dose Response: With dose response, Evaluation Type: Evaluation A (Pre-1980)) was “active; positive”, the mutagenic call (Species/Cell Type: Rat primary hepatocytes, Assay Type: Unscheduled DNA synthesis (UDS) in vitro, DNA effects, Assay Code: UDPT, Evaluation Type: Evaluation A (Pre-1980)) was “no conclusion” and the mutagenic call (Species/Cell Type: Saccharomyces cerevisiae, Assay Type: Mitotic recombination or gene conversion, Assay Code: YEH+/-*, Activation: With metabolic activation, Evaluation Type: Evaluation A (Pre-1980)) was “inactive; positive without activation, negative with activation”. For the same compound, the mutagenic call (Species/Cell Type: Salmonella typhimurium (one or more of the five standard strains: TA98, TA100, TA1535, TA1537, and TA1538), Assay Type: Histidine reverse gene mutation, Ames assay, Assay Code: SAL+*, Activation: With metabolic activation, Evaluation Type: Evaluation A (Pre-1980)) was “active; positive”, the mutagenic call (Species/Cell Type: Salmonella typhimurium, Assay Type: Forward and reverse gene mutation, host-mediated assay, Assay Code: HMA+, Evaluation Type: Evaluation A (Pre-1980)) was “active; positive” and the mutagenic call [2] was “inactive; negative”.
With `CCOC(=O)COc1ccc(Cl)cc1CSC(=N)N` the mutagenic call (Species/Cell Type: Saccharomyces cerevisiae, Assay Type: Reverse gene mutation, Assay Code: YERT, Evaluation Type: Evaluation A (Pre-1980)) was “no conclusion”.
For `COc1ccc(Cn2ccnc2/C=C/c2ccc([N+](=O)[O-])o2)cc1`, the mutagenic call [11] was “active; positive”.
`Cc1c2ccccc2c(C)c2c1ccc1ccc(O)cc12` was tested, and the mutagenic call (Species/Cell Type: Chinese hamster lung (V79) cells, Assay Type: Forward gene mutation at the HPRT or ouabain locus, Assay Code: V79-*, Activation: With metabolic activation, Evaluation Type: Evaluation A (Pre-1980)) was “inactive; negative” and the call [8] was “no conclusion”.
In the case of `CCCCN(CCCO)N=O`, the mutagenic call [6] was “active; positive”.
For `O=C(O)c1ccccc1NCCc1ccccc1`, the mutagenic call [1] was “no conclusion”.
`CC(=O)c1ccc([N+](=O)[O-])o1` was tested, and the mutagenic call [6] was “active; positive”.
In the case of `O=C(c1ccccc1)C(O)c1ccccc1` (stereo not given), the call (Species/Cell Type: Nonhuman, Assay Code: CCG-L, Evaluation Type: Evaluation A (Pre-1980)) was “inactive; negative”.
In the case of `CN(C)N=Nc1ccc(Cl)cc1`, the mutagenic call [3] was “active; positive”, the mutagenic call (Species/Cell Type: Mammalian polychromatic erythrocytes, Assay Type: Micronucleus test, chromosome aberrations, Assay Code: MNT+, Evaluation Type: Evaluation A (Pre-1980)) was “active; positive” and the mutagenic call [4] was “active; positive”.
For `O=c1[nH]cc(Cl)c(=O)[nH]1`, the mutagenic call (Species/Cell Type: Mouse, Sex: Male, Assay Type: Specific locus test, gene mutation, Assay Code: SLTT, Evaluation Type: Evaluation A (Pre-1980)) was “no conclusion”.
`C=CC=O` was tested, and the mutagenic call [5] was “active; positive”.
For `CCCCN1CC1`, the mutagenic call [12] was “active; positive”.
`O=CNc1nc(-c2ccc([N+](=O)[O-])o2)cs1` was tested, and the mutagenic call (Species/Cell Type: Bacillus subtilis (H17 vs M45), Assay Type: Rec-assay, spot test, DNA effects (bacterial DNA repair), Assay Code: REW+, Evaluation Type: Evaluation A (Pre-1980)) was “active; positive”, the mutagenic call (Species/Cell Type: Escherichia coli WP2, Assay Type: Tryptophan reverse gene mutation, Assay Code: WP2+, Evaluation Type: Evaluation A (Pre-1980)) was “active; positive” and the mutagenic call (Species/Cell Type: Escherichia coli WP2 UVRA, Assay Type: Tryptophan reverse gene mutation, Assay Code: WPU+D, Dose Response: With dose response, Evaluation Type: Evaluation A (Pre-1980)) was “active; positive”. For the same compound, the mutagenic call (Species/Cell Type: Escherichia coli polA (W3119 vs P3478), Assay Type: Rec-assay, DNA effects (bacterial DNA repair), Assay Code: RE1+, Evaluation Type: Evaluation A (Pre-1980)) was “active; positive”, the mutagenic call [9] was “active; positive” and the mutagenic call (Species/Cell Type: Mouse, Sex: Male, Assay Type: Sperm morphology, Assay Code: SPIT, Evaluation Type: Evaluation A (Pre-1980)) was “no conclusion”. The mutagenic call [13] was “active; positive”, the mutagenic call [11] was “active; positive” and the call [14] was “active; positive”. The mutagenic call [5] was “active; positive”, the mutagenic call [4] was “active; positive” and the mutagenic call (Species/Cell Type: Saccharomyces cerevisiae, Assay Type: Mitotic recombination or gene conversion, Assay Code: YEH+, Evaluation Type: Evaluation A (Pre-1980)) was “active; positive”. The mutagenic call [6] was “active; positive”, the mutagenic call (Species/Cell Type: Salmonella typhimurium and Saccharomyces cerevisiae, Assay Type: Forward and reverse gene mutation, mitotic recombination and gene conversion, DNA effects, body fluid assay, Assay Code: BFG+, Evaluation Type: Evaluation A (Pre-1980)) was “active; positive” and the mutagenic call (Species/Cell Type: Salmonella typhimurium, Saccharomyces cerevisiae, Assay Type: Forward and reverse gene mutation, mitotic recombination and gene conversion, DNA effects, host-mediated assay, Assay Code: HM3+, Evaluation Type: Evaluation A (Pre-1980)) was “active; positive”. The mutagenic call (Species/Cell Type: Syrian hamster embryo (SHE) cells, Assay Type: Cell transformation, clonal assay, Assay Code: CTC+, Evaluation Type: Evaluation A (Pre-1980)) was “active; positive”.
With `O=NN(CCCl)C(=O)NCCCl` the mutagenic call [7] was “active; positive”, the mutagenic call [3] was “active; positive” and the mutagenic call (Species/Cell Type: Human lymphocytes, Assay Type: Sister-chromatid exchange (SCE) in vitro, Assay Code: SCL+, Evaluation Type: Evaluation B (Post-1980)) was “active; positive”. The mutagenic call (Species/Cell Type: Human, Assay Type: Sister-chromatid exchange (SCE) in vitro, Assay Code: SC1+D, Dose Response: With dose response, Evaluation Type: Evaluation B (Post-1980)) was “active; positive”, the call [14] was “active; positive” and the mutagenic call [5] was “active; positive”. For the same compound, the mutagenic call (Species/Cell Type: Nonhuman, Assay Type: Sister-chromatid exchange (SCE) in vivo, Assay Code: SC3+D, Dose Response: With dose response, Evaluation Type: Evaluation B (Post-1980)) was “active; positive”, the mutagenic call [4] was “active; positive” and the mutagenic call [6] was “active; positive”.
With `C(CC1CO1)C1CO1` (stereo not given) the mutagenic call [13] was “active; positive”, the call [10] was “active; positive” and the mutagenic call [12] was “active; positive”.
With `Nc1nc(/C=C/c2ccc([N+](=O)[O-])o2)cs1` the mutagenic call [6] was “active; positive”.
